We go through 2 compounds from ChEMBL document CHEMBL1131944, “Phospholipase A2-like catalytic antibody” (Bioorg Med Chem Lett, 1999).

As usually defined, the Ki is a dissociation constant, usually derived from enzyme kinetics or from competition with a known ligand. Lower therefore signals tighter binding. A word on the Km: it is the concentration of substrate that gives half-maximal velocity.

The nature of data set [1]: Compound was tested for the inhibition of antibody-catalyzed hydrolysis.
Data set [2] is described as follows: The catalytic rate constant in the hydrolysis by 13C-1F6 was determined by Michaelis-Menten Kinetics. The format is ADME.
Another data set concerns 13C-1F6. In words: Michaelis-Menten Kinetic rate constant in the hydrolysis by 13C-1F6 was determined. The format is ADME.

Structures are written as SMILES.

`CCCCCCCCCCP(=O)(O)OC(COCCCCCCCCCC(=O)OC)COP(=O)([O-])OCC[N+](C)(C)C` (stereo not drawn) [ESTER OF PHOSPHOLIPID]: affinity in data set [1] was put at a Ki of 10 µM. With `CCCCCCCCCC(=O)OCC(COP(=O)([O-])OCC[N+](C)(C)C)OC(=O)CCCCCCC` (racemic) [ESTER OF PHOSPHOLIPID], the k cat in data set [2] amounted to 0.00017 s⁻¹. Moreover, the Km in the data set on 13C-1F6 is 71 µM.
